Source: patent publication US7491794B2, “Macrocyclic compounds as inhibitors of viral replication” (Intermune, Inc., priority 2003, dated 2009)
Structures can show the parent of a compound that is named as a salt.

biological target: T1, NS3-NS4A protease (Hepatitis C virus genotype 1a, UniProt P27958); assay: NS3-NS4A protease assay (NS3 inhibition assay, RETS1 substrate), Section B; format: biochemical; conditions: read-out: NS3-NS4A IC50
T1 construct: Recombinant E. coli or Baculovirus full-length NS3 was diluted to 3.33 μM with assay buffer; made in house; host or cells: E. coli or baculovirus (BV) system
T1 sequence (P27958 1027-1657): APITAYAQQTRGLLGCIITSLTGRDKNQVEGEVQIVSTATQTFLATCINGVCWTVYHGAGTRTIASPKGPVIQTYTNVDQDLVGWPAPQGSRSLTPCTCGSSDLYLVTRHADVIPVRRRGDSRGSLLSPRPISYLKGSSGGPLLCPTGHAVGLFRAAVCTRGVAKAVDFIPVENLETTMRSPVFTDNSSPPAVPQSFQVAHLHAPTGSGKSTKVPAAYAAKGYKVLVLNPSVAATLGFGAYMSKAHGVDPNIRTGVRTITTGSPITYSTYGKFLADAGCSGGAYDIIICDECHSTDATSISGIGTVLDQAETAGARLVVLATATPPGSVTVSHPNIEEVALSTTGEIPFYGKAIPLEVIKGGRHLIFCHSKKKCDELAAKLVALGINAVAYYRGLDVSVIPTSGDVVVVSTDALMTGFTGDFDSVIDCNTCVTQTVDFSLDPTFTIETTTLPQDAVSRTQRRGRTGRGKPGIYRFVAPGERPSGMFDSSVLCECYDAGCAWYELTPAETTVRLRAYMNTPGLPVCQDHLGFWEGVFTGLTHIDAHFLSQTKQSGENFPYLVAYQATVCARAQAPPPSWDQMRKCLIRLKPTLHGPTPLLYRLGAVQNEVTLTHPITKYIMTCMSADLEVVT
Protocol: NS3 complex formation with NS4A-2
Recombinant E. coli or Baculovirus full-length NS3 was diluted to 3.33 μM with assay buffer and the material transferred to an eppendorf tube and place in water bath in 4° C. refrigerator. The appropriate amount of NS4A-2 to 8.3 mM in assay buffer was added to equal the volume of NS3 in step 2.1.1 (conversion factor −3.8 mg/272 μL assay buffer). The material was transferred to an eppendorf tube and placed in a water bath in a 4° C. refrigerator.
After equilibration to 4° C., equal volumes of NS3 and NS4A-2 solutions were combined in an eppendorf tube, mixed gently with a manual pipettor, and the mixture incubated for 15 minutes in the 4° C. water bath. Final concentrations in the mixture were 1.67 μM NS3, 4.15 mM NS4A-2 (2485-fold molar excess NS4A-2).
After 15 minutes at 4° C., the NS3/NS4A-2 eppendorf tube was removed and placed in a room temperature water bath for 10 minutes. NS3/NS4A-2 was aliquoted at appropriate volumes and store at −80° C. (E. coli NS3 run at 2 nM in assay, aliquot at 25 μL. BV NS3 run at 3 nM in assay, aliquot at 30 μL.
Step 2.2.5. Sample compounds were dissolved to 10 mM in DMSO then diluted to 2.5 mM (1:4) in DMSO.
Step 2.2.6. The E. coli NS3/NS4A-2 was diluted to 4 nM NS3 (1:417.5 of 1.67 μM stock−18 μL 1.67 μM stock+7497 μL assay buffer).
The BV NS3/NS4A-2 was diluted to 6 nM NS3 (1:278.3 of 1.67 μM stock−24 μL 1.67 μM stock+6655 μL assay buffer).
Step 2.2.7. Using the manual multichannel pipettor, and being careful not to introduce bubbles into the plate, 50 μL assay buffer was added to wells A01-H01 of a black Costar 96-well polypropylene storage plate.
Step 2.2.8. Using the manual multichannel pipettor, and being careful not to introduce bubbles into the plate, 50 μL of diluted NS3/NS4A-2 from step 2.2.6 was added to wells A02-H12 of plate in step 2.2.7.
Step 2.2.9. Using the manual multichannel pipettor, and being careful not to introduce bubbles into the plate, 25 μL of the wells in drug dilution plate in step 2.2.5 were transferred to corresponding wells in assay plate in step 2.2.8. The tips on multichannel pipettor were changed for each row of compounds transferred.
Step 2.2.10. Using the manual multichannel pipettor, and being careful not to introduce bubbles into the plate, the wells from the assay plate in step 2.2.9 were mixed by aspirating and dispensing 35 μL of the 75 μL in each well five times. The tips on multichannel pipettor were changed for each row of wells mixed.
Step 2.2.11. The plate was covered with a polystyrene plate lid, and the plate from step 2.2.10 containing NS3 protease and sample compounds was pre-incubated 10 minutes at room temperature.
While the plate from step 2.2.11 was pre-incubating, the RETS1 substrate was diluted in a 15 mL polypropylene centrifuge tube. The RETS1 substrate was diluted to 8 μM (1:80.75 of 646 μM stock−65 μL 646 μM stock+5184 μL assay buffer).
After the plate in step 2.2.11 was done pre-incubating, and using the manual multichannel, 25 μL of substrate was added to all wells on the plate. The contents of the wells were quickly mixed, as in step 2.2.10, but mixing 65 μL of the 100 μL in the wells.
The plate was read in kinetic mode on the Molecular Devices SpectraMax Gemini XS plate reader. Reader settings: Read time: 30 minutes, Interval: 36 seconds, Reads: 51, Excitation λ: 335 nm, Emission λ: 495 nm, cutoff: 475 nm, Automix: off, Calibrate: once, PMT: high, Reads/well: 6, Vmax pts: 21 or 28/51 depending on length of linearity of reaction.
IC50s were determined using a four parameter curve fit equation, and converted to Ki's using the following Km's:
where Ki=IC50/(1+[S]/Km))

**Q.** Which IC50 does the source give for `COc1ccc2c(c1)CCN(C(=O)O[C@@H]1C[C@H]3C(=O)N[C@]4(C(=O)O)C[C@H]4/C=C\CCCCC[C@H](NC(=O)OC(C)(C)C)C(=O)N3C1)C2CN(C)C` (stereo partly drawn) [AR00333277, (1S,4R,6S,14S,18R)-14-tert-Butoxycarbonylamino-18-(1-dimethylaminomethyl-6-methoxy-3,4-dihydro-1H-isoquinoline-2-carbonyloxy)-2,15-dioxo-3,16-diaza-tricyclo[14.3.0.0^4,6]nonadec-7-ene-4-carboxylic acid] here?
**A.** < 10000 nM

**Q.** For `COc1cc2c(cc1OC)CN(C(=O)O[C@@H]1C[C@H]3C(=O)N[C@]4(C(=O)O)C[C@H]4/C=C\CCCCC[C@H](NC(=O)OC(C)(C)C)C(=O)N3C1)CC2` [AR00226824, (1S,4R,6S,14S,18R)-14-tert-Butoxycarbonylamino-18-(6,7-dimethoxy-3,4-dihydro-1H-isoquinoline-2-carbonyloxy)-2,15-dioxo-3,16-diaza-tricyclo[14.3.0.0^4,6]nonadec-7-ene-4-carboxylic acid], which IC50 is on record?
**A.** < 10000 nM

**Q.** Which IC50 does the source give for `CC(C)(C)OC(=O)N[C@H]1CCCCC/C=C\[C@@H]2C[C@@]2(C(=O)O)NC(=O)[C@@H]2C[C@@H](OC(=O)N3CCc4ncncc4C3)CN2C1=O` [AR00304183, (1S,4R,6S,14S,18R)-14-tert-Butoxycarbonylamino-18-(7,8-dihydro-5H-pyrido[4,3-d]pyrimidine-6-carbonyloxy)-2,15-dioxo-3,16-diaza-tricyclo[14.3.0.0^4,6]nonadec-7-ene-4-carboxylic acid] here?
**A.** < 50000 nM

**Q.** For `CC(C)NCCOc1ccc2c(c1)CN(C(=O)O[C@@H]1C[C@H]3C(=O)N[C@]4(C(=O)O)C[C@H]4/C=C\CCCCC[C@H](NC(=O)OC(C)(C)C)C(=O)N3C1)C2` [AR00371948, (1S,4R,6S,14S,18R)-14-tert-Butoxycarbonylamino-18-[5-(2-isopropylamino-ethoxy)-1,3-dihydro-isoindole-2-carbonyloxy]-2,15-dioxo-3,16-diaza-tricyclo[14.3.0.0^4,6]nonadec-7-ene-4-carboxylic acid], which IC50 is on record?
**A.** < 100 nM

**Q.** `CC(C)(C)OC(=O)N[C@H]1CCCCC/C=C\[C@@H]2C[C@@]2(C(=O)O)NC(=O)[C@@H]2C[C@@H](OC(=O)N3CCc4c([nH]c5ccccc45)C3)CN2C1=O` [AR00226825, (1S,4R,6S,14S,18R)-14-tert-Butoxycarbonylamino-2,15-dioxo-18-(1,3,4,9-tetrahydro-b-carboline-2-carbonyloxy)-3,16-diaza-tricyclo[14.3.0.0^4,6]nonadec-7-ene-4-carboxylic acid] was tested. Which IC50 did it give?
**A.** < 10000 nM

**Q.** How did the IC50 turn out when `CC(C)(C)OC(=O)N[C@H]1CCCCC/C=C\[C@@H]2C[C@@]2(C(=O)O)NC(=O)[C@@H]2C[C@@H](OC(=O)N3CCc4cc(N)ccc4C3)CN2C1=O` [AR00314578, (1S,4R,6S,14S,18R)-18-(6-Amino-3,4-dihydro-1H-isoquinoline-2-carbonyloxy)-14-tert-butoxycarbonylamino-2,15-dioxo-3,16-diaza-tricyclo[14.3.0.0^4,6]nonadec-7-ene-4-carboxylic acid] was run?
**A.** < 1000 nM

**Q.** For `CN(C)CC1c2ccccc2CCN1C(=O)O[C@@H]1C[C@H]2C(=O)N[C@]3(C(=O)O)C[C@H]3/C=C\CCCCC[C@H](NC(=O)OC(C)(C)C)C(=O)N2C1` (stereo partly drawn) [AR00333224, (1S,4R,6S,14S,18R)-14-tert-Butoxycarbonylamino-18-(1-dimethylaminomethyl-3,4-dihydro-1H-isoquinoline-2-carbonyloxy)-2,15-dioxo-3,16-diaza-tricyclo[14.3.0.0^4,6]nonadec-7-ene-4-carboxylic acid], which IC50 is on record?
**A.** < 10000 nM

**Q.** Which IC50 does the source give for `COCC1c2cccc(F)c2CCN1C(=O)O[C@@H]1C[C@H]2C(=O)N[C@]3(C(=O)NS(=O)(=O)C4CC4)C[C@H]3/C=C\CCCCC[C@H](N)C(=O)N2C1` (stereo partly drawn) [AR00424775, (1S,4R,6S,14S,18R)-5-Fluoro-1-methoxymethyl-3,4-dihydro-1H-isoquinoline-2-carboxylic acid 14-amino-4-cyclopropanesulfonylaminocarbonyl-2,15-dioxo-3,16-diaza-tricyclo[14.3.0.0^4,6]nonadec-7-en-18-yl ester, HCl salt] here?
**A.** < 100 nM

**Q.** Which IC50 does the source give for `COc1ccc(S(=O)(=O)NC(=O)[C@@]23C[C@H]2/C=C\CCCCC[C@H](NC(=O)OC(C)(C)C)C(=O)N2C[C@H](OC(=O)N4Cc5ccccc5C4)C[C@H]2C(=O)N3)cc1C(=O)O` [AR00365425, (1S,4R,6S,14S,18R)-1,3-Dihydro-isoindole-2-carboxylic acid 14-tert-butoxycarbonylamino-4-(3-carboxy-4-methoxy-benzenesulfonylaminocarbonyl)-2,15-dioxo-3,16-diaza-tricyclo[14.3.0.0^4,6]nonadec-7-en-18-yl ester] here?
**A.** < 100 nM

**Q.** `CC(C)(C)OC(=O)N[C@H]1CCCCC/C=C\[C@@H]2C[C@@]2(C(=O)O)NC(=O)[C@@H]2C[C@@H](OC(=O)N3CCc4ccccc4C3CN3CCCCC3)CN2C1=O` (stereo partly drawn) [AR00301383, (1S,4R,6S,14S,18R)-14-tert-Butoxycarbonylamino-2,15-dioxo-18-(1-piperidin-1-ylmethyl-3,4-dihydro-1H-isoquinoline-2-carbonyloxy)-3,16-diaza-tricyclo[14.3.0.0^4,6]nonadec-7-ene-4-carboxylic acid] was tested. Which IC50 did it give?
**A.** < 10000 nM

**Q.** For `CC(C)(C)C(=O)N[C@H]1CCCCC/C=C\[C@@H]2C[C@@]2(C(=O)O)NC(=O)[C@@H]2C[C@@H](OC(=O)N3CCc4ccccc4C3)CN2C1=O` [AR00248687, (1S,4R,6S,14S,18R)-18-(3,4-Dihydro-1H-isoquinoline-2-carbonyloxy)-14-(2,2-dimethyl-propionylamino)-2,15-dioxo-3,16-diaza-tricyclo[14.3.0.0^4,6]nonadec-7-ene-4-carboxylic acid], which IC50 is on record?
**A.** < 1000 nM

**Q.** How did the IC50 turn out when `CC(C)(C)OC(=O)N[C@H]1CCCCC/C=C\[C@@H]2C[C@@]2(C(=O)NS(=O)(=O)c2cc(C(=O)O)ccc2Cl)NC(=O)[C@@H]2C[C@@H](OC(=O)N3Cc4ccccc4C3)CN2C1=O` [AR00365388, (1S,4R,6S,14S,18R)-1,3-Dihydro-isoindole-2-carboxylic acid 14-tert-butoxycarbonylamino-4-(5-carboxy-2-chloro-benzenesulfonylaminocarbonyl)-2,15-dioxo-3,16-diaza-tricyclo[14.3.0.0^4,6]nonadec-7-en-18-yl ester] was run?
**A.** < 100 nM

**Q.** `CC(C)(C)OC(=O)N[C@H]1CCCCCCC[C@@H]2C[C@@]2(C(=O)O)NC(=O)[C@@H]2C[C@@H](OC(=O)N3CCc4ccccc4C3)CN2C1=O` [AR00312023] was tested. Which IC50 did it give?
**A.** < 1000 nM
